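A five-concentration, 48-hour dose response in 96-well plates underlies each endpoint, interpolated linearly between surrounding concentrations. Here, GI50 denotes the concentration required for 50% inhibition of growth.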 Calls of active or inactive are those of the source. Cut-off read from the data, not from the text of the source: active = GI50 up to about 1.1 µM and inactive = higher.

Test systems include SN12C; SK-OV-3; HCC 2998; KM12; HOP-92; SF-295; HOP-62; NCI-H522; A549; OVCAR-3; OVCAR-5; SNB-75; CAKI-1; COLO 205; SK-MEL-5; HCT-15; SF-268; NCI-H23; UACC-62; NCI-H460.
Test in all cases: NCI tumour cell line growth inhibition, 48 h

As to `Nc1n[c-](N)[n+](=O)c(N)c1NCO`, the GI50 in the assay with SN12C, in the assay on SK-OV-3, with HCC 2998, with KM12, in the assay with HOP-92 and in the assay on SF-295 was > 100 µM (inactive) throughout. The GI50 in the assay on HOP-62, in the assay with NCI-H522, in the assay with A549, in the assay on OVCAR-3, in the assay on OVCAR-5 and in the assay on SNB-75 was > 100 µM (inactive) in each case. The GI50 with CAKI-1 is > 100 µM (inactive); with COLO 205 it was > 100 µM (inactive); with SK-MEL-5, > 100 µM (inactive); with HCT-15, greater than 100 µM; in the assay with SF-268, > 100 µM (inactive); in the assay on NCI-H23 it was > 100 µM (inactive). Also, the GI50 with UACC-62 and in the assay with NCI-H460 was > 100 µM (inactive) throughout.
Take `CC1(C)CC(=O)C2=C(C1)OC1=C(CC(C)(C)CC1=O)C2c1ccccc1[N+](=O)[O-]` (stereo not given): the GI50 in the assay with SN12C, in the assay on SK-OV-3, in the assay on HCC 2998, in the assay with KM12, in the assay on HOP-92 and in the assay on SF-295 was > 100 µM (inactive) each time. Further, the GI50 in the assay on HOP-62, with NCI-H522, in the assay with A549, with OVCAR-3, in the assay with OVCAR-5 and in the assay on SNB-75 was > 100 µM (inactive) in each case. In addition, the GI50 in the assay on CAKI-1 is > 100 µM (inactive); in the assay on COLO 205, > 100 µM (inactive); with SK-MEL-5, > 100 µM (inactive); in the assay with HCT-15, greater than 100 µM; in the assay on SF-268, > 100 µM (inactive); with NCI-H23, > 100 µM (inactive). The GI50 in the assay on UACC-62 and in the assay with NCI-H460 was > 100 µM (inactive) in each case.
As for `C[N+](C)([O-])CCOc1cc2c(c3ccccc13)-c1ccccc1C2=O`, the GI50 in the assay with SN12C was 9.08 µM (inactive); with SK-OV-3, 35.4 µM (inactive); in the assay on HCC 2998 it was 13.7 µM (inactive); in the assay with KM12 it was 13.6 µM (inactive); in the assay with HOP-92, 7.66 µM (inactive); in the assay on SF-295, 4.63 µM (inactive). In addition, the GI50 in the assay with HOP-62 is 14.2 µM (inactive); in the assay on NCI-H522, 10.2 µM (inactive); with A549 it was 23.3 µM (inactive); with OVCAR-3 it was 11.7 µM (inactive); with OVCAR-5, 24 µM (inactive); with SNB-75, 17.5 µM (inactive). Further, the GI50 in the assay on CAKI-1 is 21.5 µM (inactive); in the assay on COLO 205, 16.3 µM (inactive); with SK-MEL-5 it was 14.4 µM (inactive); in the assay on HCT-15, 28.2 µM; in the assay on SF-268 it was 10.9 µM (inactive); in the assay on NCI-H23, 21.5 µM (inactive). Moreover, the GI50 in the assay with UACC-62 is 14.4 µM (inactive); with NCI-H460, 9.44 µM (inactive).
As for `COc1ccc(/C(C#N)=C/c2ccc(OC)c(OC)c2)cc1`, the GI50 in the assay on SN12C was > 100 µM (inactive); in the assay with SK-OV-3, > 100 µM (inactive); in the assay on HCC 2998, 59 µM (inactive); with KM12 it was > 100 µM (inactive); with HOP-92 it was > 100 µM (inactive); in the assay on SF-295, > 100 µM (inactive). In addition, the GI50 in the assay on HOP-62 was > 100 µM (inactive); in the assay on NCI-H522 it was > 100 µM (inactive); with A549, > 100 µM (inactive); with OVCAR-3, > 100 µM (inactive); in the assay on OVCAR-5, > 100 µM (inactive); with SNB-75, 56.9 µM (inactive). In addition, the GI50 in the assay with CAKI-1 is > 100 µM (inactive); with COLO 205, > 100 µM (inactive); in the assay with SK-MEL-5 it was > 100 µM (inactive); with HCT-15 it was 37.2 µM; in the assay with SF-268 it was > 100 µM (inactive); in the assay on NCI-H23, > 100 µM (inactive). Moreover, the GI50 in the assay with UACC-62 and with NCI-H460 was > 100 µM (inactive) in each case.
For `COc1ccc2nc3cc(Cl)ccc3c(Sc3ccc(N)cc3)c2c1`, the GI50 in the assay with SN12C was 11.6 µM (inactive); in the assay on SK-OV-3, 4.37 µM (inactive); with HCC 2998 it was 12.2 µM (inactive); in the assay on KM12, 6.76 µM (inactive); with HOP-92 it was 24.4 µM (inactive); with SF-295, 16.7 µM (inactive). Further, the GI50 with HOP-62 is 24.2 µM (inactive); with NCI-H522 it was 4.83 µM (inactive); in the assay on A549 it was 12.5 µM (inactive); in the assay on OVCAR-3, 9.57 µM (inactive); with OVCAR-5 it was 19.8 µM (inactive); in the assay on SNB-75 it was 11 µM (inactive). In addition, the GI50 with CAKI-1 is 12.9 µM (inactive); in the assay on COLO 205, 11.2 µM (inactive); in the assay with SK-MEL-5 it was 12.4 µM (inactive); with HCT-15, 3.94 µM; in the assay on SF-268, 11.6 µM (inactive); in the assay on NCI-H23 it was 14.1 µM (inactive). The GI50 was 5.04 µM (inactive) in the assay with UACC-62 and 7.98 µM (inactive) in the assay on NCI-H460.
Regarding `CN(C)CCNC(=O)c1cccc2ccc(-c3ccc(F)cc3)nc12`, the GI50 in the assay on SN12C is 4.85 µM (inactive); in the assay on SK-OV-3, 7.62 µM (inactive); in the assay with HCC 2998, 6.46 µM (inactive); in the assay with KM12 it was 6.67 µM (inactive); in the assay on HOP-92, 4.25 µM (inactive); in the assay with SF-295, 5.7 µM (inactive). Also, the GI50 in the assay on HOP-62 is 11.7 µM (inactive); in the assay with NCI-H522 it was 3.91 µM (inactive); with A549 it was 3.13 µM (inactive); in the assay with OVCAR-3 it was 6.89 µM (inactive); with OVCAR-5 it was 7.55 µM (inactive); with SNB-75, 6.95 µM (inactive). Further, the GI50 in the assay with CAKI-1 is 2.69 µM (inactive); with COLO 205, 2.43 µM (inactive); in the assay on SK-MEL-5, 3.34 µM (inactive); in the assay on HCT-15 it was 3.85 µM; in the assay with SF-268 it was 5.27 µM (inactive); with NCI-H23 it was 4.47 µM (inactive). Moreover, the GI50 is 3.95 µM (inactive) in the assay on UACC-62 and 2.86 µM (inactive) in the assay with NCI-H460.
On to `O=C(NN1C(=O)CS(=O)(=O)C1c1ccc(Cl)c(Cl)c1)c1ccncc1` (stereo not given), for which the GI50 is > 100 µM (inactive) with SN12C; 57.5 µM (inactive) with SK-OV-3; > 100 µM (inactive) with HCC 2998; > 100 µM (inactive) with KM12; > 100 µM (inactive) in the assay on HOP-92; > 87.5 µM (inactive) in the assay with SF-295. Besides, the GI50 is > 100 µM (inactive) with HOP-62; 66.1 µM (inactive) in the assay on NCI-H522; > 92.3 µM (inactive) with A549; > 90.8 µM (inactive) in the assay with OVCAR-3; > 62.2 µM (inactive) in the assay with OVCAR-5; 54.2 µM (inactive) in the assay on SNB-75. The GI50 in the assay with CAKI-1 is > 100 µM (inactive); in the assay with COLO 205 it was > 100 µM (inactive); in the assay on SK-MEL-5 it was > 94.2 µM (inactive); in the assay on HCT-15 it was greater than 100 µM; in the assay on SF-268, > 81.5 µM (inactive); in the assay with NCI-H23, > 100 µM (inactive). Besides, the GI50 in the assay on UACC-62 and in the assay with NCI-H460 was > 100 µM (inactive) each time.
As for `CCCNC(=S)N/C=C1/C(=O)Oc2ccccc2C1=O`, the GI50 with SN12C was > 100 µM (inactive); with SK-OV-3, 42.2 µM (inactive); in the assay on HCC 2998, > 100 µM (inactive); in the assay on KM12, > 100 µM (inactive); in the assay on HOP-92, 53 µM (inactive); in the assay with SF-295, > 100 µM (inactive). For the same compound, the GI50 in the assay with HOP-62 is > 100 µM (inactive); with NCI-H522, > 100 µM (inactive); in the assay with A549, > 100 µM (inactive); with OVCAR-3 it was > 100 µM (inactive); in the assay on OVCAR-5, > 100 µM (inactive); with SNB-75, 33.2 µM (inactive). Besides, the GI50 was > 100 µM (inactive) with CAKI-1; > 100 µM (inactive) in the assay with COLO 205; > 100 µM (inactive) in the assay on SK-MEL-5; greater than 100 µM with HCT-15; > 100 µM (inactive) with SF-268; > 100 µM (inactive) in the assay with NCI-H23. In addition, the figures for the GI50 with UACC-62 and in the assay with NCI-H460 were 92 µM (inactive) and > 100 µM (inactive), respectively.
With `CC(=O)Oc1ccccc1C(=O)Nc1ncc([N+](=O)[O-])s1` [NITAZOXANIDE], the GI50 is 19.8 µM (inactive) with SN12C; 14.7 µM (inactive) with SK-OV-3; 13 µM (inactive) in the assay on HCC 2998; 22 µM (inactive) with KM12; 3.22 µM (inactive) with HOP-92; 9.91 µM (inactive) in the assay with SF-295. In addition, the GI50 in the assay on HOP-62 is 22.3 µM (inactive); in the assay on NCI-H522, 2.86 µM (inactive); in the assay on A549, 22 µM (inactive); with OVCAR-3 it was 5.71 µM (inactive); in the assay on OVCAR-5 it was 29.9 µM (inactive); in the assay with SNB-75 it was 10.2 µM (inactive). The GI50 in the assay with CAKI-1 was 26.5 µM (inactive); in the assay on COLO 205 it was 12.7 µM (inactive); in the assay on SK-MEL-5, 11.9 µM (inactive); in the assay with HCT-15, 19.9 µM; with SF-268, 14.9 µM (inactive); in the assay with NCI-H23, 9.73 µM (inactive). Further, the GI50 with UACC-62 was 4.33 µM (inactive); in the assay on NCI-H460, 17.1 µM (inactive).
For `Cc1ccc(Nc2nc3ccccc3nc2NS(=O)(=O)c2ccc(N)cc2)cc1`, the GI50 with SN12C was 48.3 µM (inactive); in the assay on SK-OV-3, > 100 µM (inactive); in the assay on HCC 2998, 3.64 µM (inactive); in the assay on KM12, 23.5 µM (inactive); in the assay on HOP-92, 95.9 µM (inactive); with SF-295, 46.7 µM (inactive). Also, the GI50 is > 100 µM (inactive) in the assay on HOP-62; 25.2 µM (inactive) in the assay with NCI-H522; 34.5 µM (inactive) in the assay with A549; 65 µM (inactive) with OVCAR-3; > 100 µM (inactive) with OVCAR-5; 84.9 µM (inactive) in the assay with SNB-75. Besides, the GI50 is 59.2 µM (inactive) in the assay on CAKI-1; 45.8 µM (inactive) in the assay with COLO 205; 39.2 µM (inactive) with SK-MEL-5; 49.8 µM in the assay with HCT-15; 89.7 µM (inactive) in the assay with SF-268; 3.2 µM (inactive) with NCI-H23. Besides, the GI50 in the assay on UACC-62 was 36.1 µM (inactive); in the assay on NCI-H460, 4.89 µM (inactive).

Source of the values: ChEMBL document CHEMBL1201862, “PubChem BioAssay data set” (2004).
